{"source": "patent US9486502B2", "about": "“Methods of administering interferon gamma to absorb fluid from the subretinal space” (The United States of America, as represented by the …, priority 2008, dated 2016)", "molecules": {"B1": {"name": "interferon gamma-1b: biologic response modifier, single chain polypeptide containing 140 amino acids (Actimmune®) (protein, UniProt P01579 24-161, looked up)", "Interferon gamma": "QDPYVKEAENLKKYFNAGHSDVADNGTLFLGILKNWKEESDRKIMQSQIVSFYFKLFKNFKDDQSIQKSVETIKEDMNVKFFNSNKKKRDDFEKLTNYSVTDLNVQRKAIHELIQVMAELSPAAKTGKRKRSQMLFRG", "modifications": "interferon gamma-1b"}}, "key": {"hfRPE cells [1]": {"tested_on": "hfRPE cells", "experiment": "BrdU incorporation assay, hfRPE proliferation", "format": "cell-based, human", "settings": "for effect on the IFNγ effect on hfRPE proliferation: added one hour prior to IFNγ; for effect on hfRPE proliferation (BrdU incorporation): 0.5-80 ng/ml", "method": "BrdU incorporation was performed as described in Li, R. et al., 2007, Invest Ophthalmol Vis Sci, 48, 5722-5732, incorporated by reference in its entirety herein. IFNγ, TNFα, and IL-1β were obtained from Peprotech, Rocky Hill, N.J., and Universal Type I Interferon (cat: 11200-1) or human interferon beta la were from PBL biomedical laboratories (New Brunswick, N.J.). Cumulative effects were measured by adding VEGF165, EGF and bFGF (Peprotech), and PDGF-BB (R & D Systems) with IFNγ. Anti-human IFNγ R1 blocking antibody (R & D Systems, Minneapolis, Minn.), JAK inhibitor I, AG490, or JAK3 inhibitor II (EMD Biosciences, Gibbstown, N.J.) was added to the cells one hour prior to the addition of IFNγ. SFM was used as the negative control and SFM supplemented with 5% serum was used as positive control. After treatment for 48 hours, RPE cells were incubated with BrdU for 24 hours. The proliferation rate was evaluated using a Cell proliferation ELISA BrdU Kit (Roche, Ind.). Quadruplicate wells were used for each condition and the experiments were repeated at least two times using cell cultures from different donors. Cell viability was evaluated using a Live/Dead Viability/Cytotoxicity Kit (Invitrogen)."}, "hfRPE monolayers": {"tested_on": "hfRPE monolayers", "experiment": "fluid transport (JV, TEP, RT) across hfRPE monolayers in modified Üssing chamber", "format": "cell-based, human", "settings": "for effect on the effects of IFNγ on JV: Rp-8-Br-cAMPS 2 μM pretreatment", "excerpt": "Confluent monolayers of hfRPE cultured on transwells were mounted in a modified Üssing chamber and transepithelial water flow measurements (JV) were made with a capacitance probe technique as described previously in Maminishkis, A., et al., Invest Ophthalmol Vis Sci, 2006, 47, 3612-3624; Shi, G., et al., Invest Ophthalmol Vis Sci, 2008, 49, 4620-4630; Edelman, J. L., et al., Invest Ophthalmol Vis Sci, 1991, 32, 3033-3040; Jiang, C., et al., Science, 1993, 262, 424-427; and Maminishkis, A., et al., Invest Ophthalmol Vis Sci, 2002, 43, 3555-3566, each incorporated herein by reference in its entirety.\nTissue viability was ascertained by recording transepithelial potential (TEP) and total tissue resistance (RT). It should be noted that the solution composition changes in this chamber were relatively slow (≈1-2 chamber volumes per minute) and the data sampling rate was once per minute, more than two orders of magnitude slower than the sampling rate in the electrophysiology chamber (see below). Therefore it was not possible to record fast changes, in seconds or minutes, in JV, TEP, or RT. After addition of IFNγ to the apical or basal baths, steady-state JV, TEP, and RT were recorded for 20-30 minutes. In control experiments, successive additions of IFNγ were made to test for the repeatability and reversibility of responses. To block IFNγ effects, RPE cells were incubated for 30-60 minutes with a blocking antibody against IFNγ R1, JAK inhibitor I, PKA inhibitors (H-89, EMD Biosciences; RP-8-Br-cAMPS, Sigma-Aldrich), nitric oxide synthase inhibitor (aminoguanidine hydrochloride, Sigma-Aldrich), P38 MAPK inhibitors (SB203580 or SB20290), or CHX. Other components of this signaling pathway were studied using P38 MAPK inhibitors (SB203580 and SB202190). Relatively specific Cl channel inhibitors, CFTRinh-172 or DIDS (EMD Biosciences, La Jolla, Calif.), were used to block cAMP or Ca^2+-activated Cl channels; experiments with CFTRinh-172 were performed as described in Muanprasat, C., et al., J Gen Physiol, 2004, 124, 125-137, incorporated herein by reference in its entirety. In chronic experiments, paired hfRPE tissues with matched RT values were incubated for 4-24 hours with IFNγ or CHX. The subsequent changes in JV, RT, and TEP were measured in Ringer's solution or serum free cell culture media as previously described in Shi, G., et al., Invest Ophthalmol Vis Sci, 2008 and Maminishkis, A., et al., Invest Ophthalmol Vis Sci, 2006, 47, 3612-3624, each incorporated herein by reference in its entirety. Intracellular levels of NO were elevated with 1-Hydroxy-2-oxo-3-(3-aminopropyl)-3-isopropyl-1-triazene (NOC-5, Enzo Life Sciences, Plymouth, Pa.). 8-Br-cGMP was purchased from Sigma-Aldrich."}, "rat RPE": {"tested_on": "rat RPE", "experiment": "in vivo retinal re-attachment assay (OCT)", "method": "All animal experiments were conducted in compliance with the ARVO Statement for the use of Animals in Ophthalmic and Vision Research, and the protocol was approved by the Animal Care and Use Committee of the National Institutes of Health. The procedures have been described in detail in Maminishkis, A., et al., Invest Ophthalmol Vis Sci, 2006, 47, 3612-3624, incorporated by reference in its entirety herein. Briefly, retinal detachments were created in long-Evans rats by injecting 0.5 to 3 μl of modified phosphate-buffered saline (MPBS) Ringer's solution into the sub-retinal space (SRS), which separates the photoreceptor outer segments and the apical membrane of the RPE. In the control portion of each experiment (at 0-70 minutes after creation of the retinal detachment), the rate of change of bleb volume was measured. The control period of “constant” volume was defined by JV≦2 μl hr cm over at least 40 minutes. Any control injections that exceeded this threshold rate were rejected from subsequent analysis.\nIFNγ was dissolved in MPBS, mixed with Celluvisc® solution (1:1) and applied as eye-drops (0.4 mL). Optical coherence tomography (OCT) imaging (Institute of Applied Physics, Russian Academy of Science, Nizhniy Novgorod, Russia) was used to measure the time course of the detachment volume change.\nA previously tested in vivo rodent model of retinal detachment was used to measure the effect of IFNγ on re-absorption following retinal detachment, as described in Example 11 and in Maminishkis, A., et al., Invest Ophthalmol Vis Sci, 2002, 43, 3555-3566, incorporated herein by reference in its entirety. Initial detachment was created by injecting approximately 1 μl of osmotically-balanced, modified phosphate-buffered saline (MPBS) Ringer's solution into the extracellular space, i.e. the sub-retinal space (SRS). After stabilization of the detachment, IFNγ (40 μl of 100 ng/ml) was added to the anterior surface of the eye via eye drops (Celluvisc®). A series of 3D OCT images were recorded at different time points."}, "[2]": {"settings": "multiple instillations per day for months; literature; cited from earlier work"}, "hfCHC cells": {"tested_on": "hfCHC cells", "experiment": "BrdU incorporation assay, human fetal choroidal cell proliferation", "format": "cell-based"}, "hfRPE cells [3]": {"tested_on": "hfRPE cells", "experiment": "wound healing assay, hfRPE migration", "format": "cell-based, human", "settings": "48 hours, proliferation suppressed with mitomycin C", "method": "The wound healing assay was used to study the effects of inflammatory cytokines on hfRPE cell migration, as described previously in Li, R., et al. Invest Ophthalmol Vis Sci, 2007, 48, 5722-5732, incorporated herein by reference in its entirety. Cell proliferation was suppressed by incubation with 10 μg/ml mitomycin C (Sigma) for 2 hours before all migration experiments. A circular denuded area (7 mm in diameter) was made in each well using a custom designed cell scraper. After incubation with various inflammatory cytokines for 48 hours, cells were fixed with cold methanol and stained with ethidium homodimer-1 (EthD-1, Invitrogen) according to the manufacturer's instructions. Cell migration was quantified by counting the average number of cells that migrated into the denuded area in 16 microscope fields surrounding the circumference of the denuded area. Each condition was tested in triplicate and repeated using cells from different donors."}, "[4]": {"experiment": "Phase I study of topical interferon gamma-1b in CME secondary to uveitis (OCT macular thickness)", "format": "in vivo, human", "settings": "patients with CME secondary to uveitis, topical instillation(s), OCT post-instillation", "excerpt": "To test whether cystoid macular edema (CME), secondary to uveitis, is caused by the disequilibrium of the Jak/Stat and mTor signal transduction pathways in the retinal pigment epithelium (RPE), interferon gamma-1β topically applied in human patients. Five participants with CME secondary to uveitis receive a topical ocular instillation of interferon gamma-1b in a Phase I, non-randomized, prospective, uncontrolled, dose-escalation, single-center study. The study involves a one-time instillation or series of instillations of interferon gamma-1b on the cornea and measurement of a response with optical coherence tomography (OCT) over a three hour period.\nA 25% decrease in macular thickness is observed at a post-instillation as compared to baseline. In the study, the first two participants receive one instillation (each instillation contains […] in 0.05 mL solution) on the cornea at time zero, the next two participants receive two instillations, 10 minutes apart, for a total dosage of 20 μg, and the final participant receives three instillations, 10 minutes apart, for a total of 30 μg. OCT will be obtained at −60 minutes, −30 minutes and just before the instillation(s). […]\nParticipants with CME secondary to uveitis are treated with ocular instillation(s) of interferon gamma-1b. […] The effect on the retinal thickness is measured using OCT measurements as indicated below. […]"}}}
{"molecule": "N#C/C(=C\\c1ccc(O)c(O)c1)C(=O)NCc1ccccc1", "note": "[AG490, reference compound]", "values": [{"measurement": "effect on the IFNγ effect on hfRPE proliferation", "setting": "hfRPE cells [1]", "result": "block"}]}
{"molecule": "COc1cc2ncnc(Nc3ccc(O)c(Br)c3)c2cc1OC", "note": "[JAK3, reference compound]", "values": [{"measurement": "effect on the IFNγ effect on hfRPE proliferation", "setting": "hfRPE cells [1]", "result": "not"}]}
{"molecule": "Nc1ncnc2c1nc(Br)n2C1OC2COP(O)(=S)OC2C1O", "note": "(stereo not drawn) [Rp-8-Br-cAMPS]", "values": [{"measurement": "effect on the effects of IFNγ on JV", "setting": "hfRPE monolayers", "result": "completely blocked"}, {"measurement": "effect on the effects of IFNγ on JV", "setting": "hfRPE monolayers; listed as Rp-8-Br-cAMPs", "result": "blocked"}, {"measurement": "effect on baseline JV", "setting": "hfRPE monolayers; Rp-8-Br-cAMPS 2 μM, approximately 40 minutes", "result": "no effect"}, {"measurement": "JV after Rp-8-Br-cAMPS", "setting": "hfRPE monolayers; six experiments, steady-state baseline 8.9±1.2", "result": "10.4±2.0", "unit": "μl·cm^−2·hr^−1"}, {"measurement": "reduction in IFNγ-induced absorption rate", "setting": "rat RPE; PKA inhibitor alone injected into subretinal space, FIG. 23D", "result": "~40", "unit": "%"}, {"measurement": "effect on IFNγ induced decrease in detachment volume", "setting": "rat RPE; pre-injection of 50 μM PKA inhibitor alone", "result": "partially blocked"}]}
{"molecule": "IFNα", "values": [{"measurement": "effect of type I IFN on hfRPE proliferation", "setting": "hfRPE cells [1]; data not shown", "result": "no effect"}, {"measurement": "side effects reported from topical administration", "setting": "[2]", "result": "follicular conjunctivis and conjunctival injection"}]}
{"molecule": "IL-1β: inflammatory cytokine obtained from Peprotech; ICM component", "values": [{"measurement": "effect on hfRPE proliferation (BrdU incorporation)", "setting": "hfRPE cells [1]", "result": "no significant effect"}, {"measurement": "effect on hfCHC (human fetal choroidal) cell proliferation", "setting": "hfCHC cells", "result": "significantly stimulated"}, {"measurement": "effect on hfRPE cell migration", "setting": "hfRPE cells [3]", "result": "no significant effect"}]}
{"molecule": "JAK inhibitor I", "values": [{"measurement": "effect on the IFNγ effect on hfRPE proliferation", "setting": "hfRPE cells [1]", "result": "block"}, {"measurement": "effect on base level of fluid transport (JV)", "setting": "hfRPE monolayers; JAK inhibitor I 5 μM alone", "result": "no significant effect"}, {"measurement": "effect on IFNγ increase in JV", "setting": "hfRPE monolayers; JAK inhibitor I 5 μM, 0.5-1 hours prior to IFNγ", "result": "significantly blocked"}]}
{"molecule": "TNFα", "values": [{"measurement": "effect on hfRPE proliferation (BrdU incorporation)", "setting": "hfRPE cells [1]", "result": "weak stimulatory effect"}, {"measurement": "concentration at which the stimulatory effect reached statistical significance", "setting": "hfRPE cells [1]; P <0.05", "result": 80, "unit": "ng/mL"}, {"measurement": "effect on hfCHC (human fetal choroidal) cell proliferation", "setting": "hfCHC cells", "result": "significantly stimulated"}, {"measurement": "effect on hfRPE cell migration", "setting": "hfRPE cells [3]", "result": "no significant effect"}]}
{"molecule": "B1", "values": [{"measurement": "decrease in (central) macular thickness versus baseline", "setting": "[4]", "result": 25, "unit": "%"}]}
